# US20200345049A1, “COMPOSITIONS” (Givaudan, S.A., priority 2017, published 2020)
# Entries after “also recorded” stand apart in the source; their conditions may differ.
# How the values were obtained:
# [1] = tested on: sweet sensitive taste panel of five experts (trained flavourists); assay: Taste evaluation of mogroside V / 11-O-mogroside V solutions in 5% (w/v) sucrose and 0.03% (w/v) citric acid; assay type: in vivo, human; settings: compared to mogroside V alone
# Excerpt: Mogroside V and 11-O-mogroside V were isolated from extracts of Luo Han Guo using Agilent 1100 preparative HPLC system with a Phenomenex Luna C18 (2) column (5 μm, 210×21.4 mm), and combined to form solutions of various concentrations.
# These solutions were combined with a solution containing 5% (w/v) sucrose and 0.03% (w/v) citric acid to give test samples and evaluated by a sweet sensitive taste panel of five experts (trained flavourists).
# [2] = Sweetness relative to sucrose; assay type: in vivo
# Method: The term “sucrose equivalence” refers to the equivalence in sweetness of a composition containing at least one non-sucrose sweetener to a reference sucrose solution. […] Other non-sucrose sweeteners may then be tasted at a series of dilutions to determine the concentration of the non-sucrose sweetener that is as sweet (i.e. isosweet) to a given sucrose reference. The term “isosweet” refers to compositions that have equivalent sweetness. Typically, the sweetness of a given composition is measured with reference to a solution of sucrose. See “A Systematic Study of Concentration-Response Relationships of Sweeteners,” […]. Walters, […]. Booth, […]. Gibes, B. T. Carr, and L. M. Brands, in Sweeteners: Discovery, Molecular Design and Chemoreception, D. E. Walters, F. T. Orthoefer, and G. E. DuBois, Eds., American Chemical Society, Washington, D.C. (1991), pp 261-276.
compound,measurement,setting,value
"C[C@H](CC[C@@H](O[C@@H]1O[C@H](CO[C@@H]2O[C@H](CO)[C@@H](O)[C@H](O)[C@H]2O)[C@@H](O)[C@H](O)[C@H]1O[C@@H]1O[C@H](CO)[C@@H](O)[C@H](O)[C@H]1O)C(C)(C)O)[C@H]1CC[C@@]2(C)[C@H]3CC=C4[C@@H](CC[C@H](O[C@@H]5O[C@H](CO[C@@H]6O[C@H](CO)[C@@H](O)[C@H](O)[C@H]6O)[C@@H](O)[C@H](O)[C@H]5O)C4(C)C)[C@]3(C)C(=O)C[C@]12C [11-O-mogroside V, 11-O-Mogroside V]",Effect of blending 11-O-mogroside V with mogroside V on sweet quality,[1],improves the sweet quality compared to mogroside V alone; also recorded: helped to reduce sweetness lingering (weaken later sweetness taste) and reduce astringent and bitter aftertastes compared to mogroside V alone
same,Sweetness relative to sucrose,[2]; Example 2 results,84 times sweeter than sucrose
same,Sweetness relative to sucrose,[2]; description,about 84 times the sweetness of sucrose
